{"source": "patent US10369131B2", "about": "“Ultrapure tetrahydrocannabinol-11-oic acids” (Corbus Pharmaceuticals, Inc., priority 2013, dated 2019)", "key": {"CB1 receptor [1]": {"target": "T1, CB1 receptor (Homo sapiens, UniProt P21554)", "T1 sequence (P21554 whole entry)": "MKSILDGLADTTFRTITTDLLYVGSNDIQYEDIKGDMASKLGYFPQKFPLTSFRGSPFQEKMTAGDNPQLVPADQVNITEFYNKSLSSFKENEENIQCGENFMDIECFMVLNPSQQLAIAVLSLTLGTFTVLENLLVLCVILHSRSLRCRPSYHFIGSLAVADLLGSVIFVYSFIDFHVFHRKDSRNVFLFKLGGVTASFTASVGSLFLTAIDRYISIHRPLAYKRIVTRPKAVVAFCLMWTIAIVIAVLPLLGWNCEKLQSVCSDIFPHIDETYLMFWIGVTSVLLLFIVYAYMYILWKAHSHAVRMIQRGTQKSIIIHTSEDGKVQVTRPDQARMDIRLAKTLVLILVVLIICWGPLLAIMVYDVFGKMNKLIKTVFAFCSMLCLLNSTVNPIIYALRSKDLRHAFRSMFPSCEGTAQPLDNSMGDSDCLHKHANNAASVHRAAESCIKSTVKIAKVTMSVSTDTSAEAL", "assay": "CB receptor radioligand binding assay, human CB1", "design": "expressed in transfected cells; host or cells: HEK-293T", "method": "Membrane preparation—HEK-293T cells were cultured according to ATCC (Manassas, Va.) guidelines and transfected with human CB1 cDNA (Genbank X54937) or CB2 cDNA (Genbank X74328), operably linked to the SV40 promoter, using Polyfect (Qiagen, Valencia, Calif.) or Fugene (Roche, Nutley, N.J.) according to manufacturer's instructions. 48 h after transfection, cells were harvested in ice cold membrane buffer (20 mM HEPES, 6 mM MgCl2, 1 mM EDTA, pH 7.2) using a cell scraper. Cells were transferred to a nitrogen cavitation chamber and a pressure of […] was applied for 30 min. The pressure was released and the cell debris was collected and centrifuged at 1000 g at 4° C. for 10 min. The supernatant was collected and the spin was repeated until the supernatant was free of precipitate. […] The membrane concentration was determined using a BioRad (Hercules, Calif.) protein assay dye reagent according to manufacturer's instructions. […]\nMembranes were incubated for 2 hr at room temperature, then filtered onto a presoaked (with 0.1% polyethylenimine for 1 to 2 hr) 96 well GF/B filterplate (Packard Bioscience, Shelton, Conn.) and washed with […] ice cold wash buffer (25 mM HEPES, 1 mM CaCl2, 5 mM MgCl2, 0.25M NaCl) using a Filtermate 196 Harvester (Packard Instruments, Downers Grove, Ill.). […] Plates were counted on a Topcount NXT (Packard, Shelton, Conn.). […]"}, "[2]": {"test_system": "CD-1 mice, arachidonic acid induced paw edema", "assay": "Arachidonic acid induced paw edema model", "assay_type": "in vivo, mouse", "conditions": "oral 5, 50 and 500 ug/kg, 90 min before arachidonic acid, paw volume 45 min after injection", "method": "CD-1 Mice (Female) were randomly allocated to experimental groups and allowed to acclimatise for one week. Prior to test compound administration, baseline right hind paw volume was measured under gas (isoflurane) anaesthesia using a water displacement device (plethysmometer, Stoelting). On Day 0, ultrapure AJA suspended in 2% MC or vehicle was administered at 0, 5, 50 and 500 ug/kg by oral gavage. Ninety minutes after treatment administration, the animals were given 10 microliters of a 100 mg/ml arachidonic acid solution in 5% ethanol by subcutaneous injection into the plantar aspect of the right hind paw. A control group of animals (Group 1) was administered with an equivalent volume of a 5% ethanol solution. The left hind paws were not injected. Intra-plantar injections were performed under gas anaesthesia. 45 minutes after the intra-plantar injections right hind paw volume was measured under gas anaesthesia using a plethysmometer."}, "CB1 receptor [3]": {"target": "T1, CB1 receptor", "assay": "biochemical", "excerpt": "When the CB1 or CB2 receptor is activated by an agonist, the affinity of the G protein alpha subunit increases with respect to GTP vs. GDP. As a consequence, GDP is displaced from the G protein and GTP or GTPγS binds. If a radioactive label, such as [^35S], is attached to the GTPγS molecule, then the formation of the G protein/[^35S]GTPγS complex can be directly measured using liquid scintillation spectrophotometry.\nThe CB1 and CB2 receptor assays involve membrane preparations purchased from Perkin Elmer (Waltham, Mass.) isolated from a HEK-293 expression system. G-protein coupled signal transduction (GTP-γ-[35S]) assays of test compounds were conducted in an incubation mixture consisting of a test compound (250 nM-1 mM), GDP (20 μM), GTP-γ-[35S] (100 pM), and the hCB1 and hCB2 membrane preparations (0.4 pM) in a total volume of 0.4 mL of assay buffer (50 mM TRIS-HCl, pH 7.4, 1 mM EDTA, 100 mM NaCl, 5 mM MgCl2, 0.5% (w/v) BSA). Nonspecific binding was determined in the presence of 100 μM unlabeled GTP-γ-S, and basal binding was determined in the absence of drug. Duplicate samples were incubated for 1 h at 30° C., and the bound complex was filtered from the reaction mixture as described previously and counted in a liquid scintillation counter. Specific binding was calculated by subtracting nonspecific binding from total binding and dividing by the total basal binding minus nonspecific binding. Data were plotted and analyzed with GraphPad Prism (GraphPad Software, Inc., San Diego, Calif.)."}, "female CD-1 mice": {"test_system": "female CD-1 mice", "assay": "Rectal temperature (mouse hypothermia assay)", "conditions": "oral 0.05-56 mg/kg, 90 min after administration", "method": "Compounds were administered at a volume of […] via oral gavage.\nFemale CD-1 mice (20-25 g), obtained from Charles River (Raleigh, N.C.), were used for assessment in hot plate nociception, rectal temperature, and ring immobility assays. Separate mice were used for testing each dose of each compound in this battery of procedures. The mice had free access to food and water when in their home cages. All animals were kept in a temperature-controlled (20-22° C.) environment with a 12-hour light-dark cycle (lights on at 7 a.m.).\nEach mouse was tested in a battery of three tests, in which cannabinoid CB1 agonists produce in vivo effects in mice (Martin et al., 1991): antinociception (hot plate assay), decreased rectal temperature and ring immobility. Prior to administration of the test compound, rectal temperature and baseline latency in the hot plate test were measured in the mice. The latter procedure involved placing the mouse on a heated surface (mouse cold/hot plate analgesia apparatus; Stoelting, Wood Dale, Ill.) at a setting of 55° C. Time until the mouse lifts or licks a paw was measured, whereupon the mouse was removed from the apparatus. […] Subsequently, the mice were placed on a 5.5 cm ring attached at a height of 16 cm to a ring stand, and the amount of time the animals remained motionless during a 5 min period was recorded. In addition, the number of times the mouse fell or jumped off the ring was recorded. […]\nRectal temperature values were expressed as the difference between control temperature (before injection) and temperature following drug administration (Δ° C.). Antinociception was expressed as the percent maximum possible effect (MPE) using a 30-s maximum test latency as follows: [(test−control)/(30−control)]×100. During assessment for catalepsy, the total amount of time (in seconds) that the mouse remained motionless on the ring apparatus (except for breathing and whisker movement) was measured and was used as an indication of catalepsy-like behavior. […]"}, "HL-60 cells": {"test_system": "HL-60 cells", "assay": "PGJ synthesis in HL-60 cells (ELISA)", "assay_type": "cell-based", "conditions": "TNFα 10 nM, with CB2 or CB1 antagonist, N=4", "method": "The CB2 antagonist SR144528 reduced ultrapure AJA-induced PGJ synthesis in HL60 immune system cells at low concentrations (squares). […] DMSO control (open circles). Treatments of cells was carried out in 48 well plates with 20,000 cells/500 μl RPMI/FCS media/well. Cells were incubated for 20 hrs at 37° C. and 5% CO2. Media was changed to 500 μl of serum free RPMI and TNFα (10 nM) added. […] N=4."}}, "note": "“Also recorded” adds a separate entry of the source.", "data": [{"compound": "CCCCCCC(C)(C)c1cc(O)c2c(c1)OC(C)(C)[C@@H]1CC=C(C(=O)O)C[C@@H]21", "note": "[JBT-101, (6aR,10aR)-3-(1′,1′-dimethylheptyl)-Δ8-tetrahydro-cannabinol-9-carboxylic acid]", "values": [{"measurement": "Ki", "setting": "CB1 receptor [1]", "value": "0.628 ± 0.006", "unit": "µM"}, {"measurement": "inhibition of paw volume / inflammation", "setting": "[2]", "value": "effective at doses well below the doses in which CB1 activity is observed"}, {"measurement": "inhibition of paw volume / inflammation", "setting": "[2]; listed as ultrapure AJA", "value": "effective at all doses tested"}, {"measurement": "EC50", "setting": "CB1 receptor [3]; hCB1 EC50 Mean (±SEM), GTP-γ-35S turnover, mean of 4 repetitions", "value": "9.21 ± 2.04", "unit": "µM"}, {"measurement": "EC50", "setting": "CB1 receptor [3]; hCB1 EC50 Rep 1, GTP-γ-35S turnover, replicate 1", "value": 13.7, "unit": "µM"}, {"measurement": "EC50", "setting": "CB1 receptor [3]; hCB1 EC50 Rep 2, GTP-γ-35S turnover, replicate 2", "value": 5.83, "unit": "µM"}, {"measurement": "EC50", "setting": "CB1 receptor [3]; hCB1 EC50 Rep 3, GTP-γ-35S turnover, replicate 3", "value": 11.6, "unit": "µM"}, {"measurement": "EC50", "setting": "CB1 receptor [3]; hCB1 EC50 Rep 4, GTP-γ-35S turnover, replicate 4", "value": 5.66, "unit": "µM"}, {"measurement": "change in rectal temperature (hypothermia)", "setting": "female CD-1 mice", "value": "None of the doses tested produced significant; also recorded: inactive"}, {"measurement": "stimulation of PGJ in HL-60 cells", "setting": "HL-60 cells", "value": "CB2 specificity"}]}]}
